Literature values, collected in publication PMC12749109 (Nature Communications, 2025).
Entries after “also recorded” stand apart in the source; their conditions may differ.

Columns and labels:
[1] = system: TNBS-induced colitis; conditions: rat acute TNBS colitis; cited from earlier work
[2] = system: GALR1; conditions: cited from earlier work
[3] = system: GALR2; conditions: cited from earlier work
[4] = system: GALR3; conditions: cited from earlier work

For “galanin: biologically active neuropeptide of 29/30 amino acids, cited literature”, the “severity of colonic damage and inflammatory responses” value [1] is listed as “decreases inflammatory responses; also recorded: reduce the severity of colonic damage and inflammatory responses”, the affinity [2] is listed as “high affinity” and the affinity [3] is listed as “high affinity”. For the same substance, the affinity [4] was “lower affinity”.
